# Where a name gives a salt, the structure may show the parent alone. Read-outs that look alike come from different tables or passages of the source.
# Key:
# K562 cells = assay: Cell Titer Glo 2.0 cell viability assay; assay type: cell-based; settings: Homo sapiens, 500 cells/well, 72 hours
# Protocol: Compounds described herein were screened for toxicity in K562 (human chronic myelogenous leukemia) and SH-SY5Y (human neuroblastoma) cells using a Cell Titer Glo 2.0 assay. • Promega CellTiter-Glo® 2.0 Cell Viability Assay (cat #G9241) • Corning 384-well TC-treated microplates (cat #3570) Cells were plated at 500 cells/well (K562 cells) in 45 μL of IMDM supplemented with 10% FBS in a 384-well opaque plate. Wells containing only medium were used as a blank control. Test compounds (e.g., compounds of Formula (I), (II), or (III)) were first serially diluted in DMSO then diluted 1:100 with IMDM+10% FBS. The final concentration of DMSO was 0.1% in each well. The cells were incubated for 72 hours at 37° C. and 5% CO2 before assaying with Cell Titer Glo 2.0 reagent.
# SMN2 mRNA = assay: RT-qPCR splicing assay, gene panel, SMN2 canonical junction (CJ) mRNA; assay type: cell-based; settings: Homo sapiens, read-out: SMN2 CJ IC50
# Protocol: Compounds described herein were used to modulate RNA transcript abundance in cells. The expression of a target mRNA was measured by detecting the formation of an exon-exon junction in the canonical transcript (CJ). A compound mediated exon-inclusion event was detected by observing an increase in formation of a new junction with an alternative exon (AJ). Real-time qPCR assays were used to detect these splicing switches and interrogate the potency of various compounds towards different target genes. A high-throughput real time quantitative PCR (RT-qPCR) assay was developed to measure these two isoforms of the mRNA (CJ and AJ) for exemplary genes, such as HTT, SMN2, and MYB, together with a control housekeeping gene, GAPDH or GUSB or PPIA, used for normalization. Briefly, the A673 or K562 cell line was treated with various compounds described herein (e.g., compounds of Formula (I)). After treatment, the levels of the HTT, MYB, or SMN2 mRNA targets were determined from each sample of cell lysate by cDNA synthesis followed by qPCR.
# The A673 cell line was cultured in DMEM with 10% FBS. Cells were diluted with full growth media and plated in a 96-well plate (15,000 cells in 100 ul media per well). The plate was incubated at 37° C. with 5% CO2 for 24 hours to allow cells to adhere. An 11-point 3-fold serial dilution of the compounds was made in DMSO then diluted in media in an intermediate plate. Compounds were transferred from the intermediate plate to the cell plate with the top dose at a final concentration of 10 uM in the well. Final DMSO concentration was kept at or below 0.25%. The cell plate was returned to the incubator at 37° C. with 5% CO2 for an additional 24 hours.
# The K562 cell line was cultured in IMDM with 10% FBS. For K562, cells were diluted with full growth media and plated in either a 96-well plate (50,000 cells in 50 uL media per well) or a 384-well plate (8,000-40,000 cells in 45 uL media per well). An 11-point 3-fold serial dilution of the compounds were made in DMSO then diluted in media in an intermediate plate. Compound was transferred from the intermediate plate to the cell plate with the top dose at a final concentration of 10 uM in the well. Final DMSO concentration was kept at or below 0.25%. Final volume was 100 uL for 96-well plate and 50 uL for 384-well plate. The cell plate was then placed in an incubator at 37° C. with 5% CO2 for 24 hours.
# The cells were then gently washed with 50 uL-100 uL cold PBS before proceeding to addition of lysis buffer. 30 uL-50 μL of room temperature lysis buffer with DNAse I (and optionally RNAsin) was added to each well. Cells were shaken/mixed thoroughly at room temperature for 5-10 minutes for lysis to take place and then 3 uL-5 μL of room temperature stop solution was added and wells were shaken/mixed again. After 2-5 minutes, the cell lysate plate was transferred to ice for RT-qPCR reaction setup. The lysates could also be frozen at −80° C. for later use.
# In some cases, a direct lysis buffer was used. An appropriate volume of 3× lysis buffer (10 mM Tris, 150 mM NaCl, 1.5%-2.5% Igepal and 0.1-1 U/uL RNAsin, pH 7.4) was directly added to either K562 or A673 cells in media and mixed by pipetting 3 times. The plates were then incubated at room temperature with shaking/rocking for 20-50 minutes to allow for lysis to take place. After this time, the cell lysate plate was transferred to ice to set up for the RT-qPCR reactions. The lysates could also be frozen at −80° C. for later use.
# To set up 10 uL RT-qPCR reactions, cell lysates were transferred to 384-well qPCR plates containing the master mix according to the table below. The plates were sealed, gently vortexed, and spun down before the run. The volumes were adjusted accordingly in some instances where the reaction was carried in 20 μL. The table below summarizes the components of the RT-qPCR reactions:
# The RT-qPCR reaction was performed using a QuantStudio (ThermoFisher) under the following fast cycling conditions. […]
# [1] = decrease in CJ mRNA levels, larger panel of genes, Table 3
SMILES,GI50 (K562 cells) [nM],IC50 (SMN2 mRNA; [1]) [nM],IC50 (SMN2 mRNA) [nM]
"Fc1cc(-c2ccc3ccncc3c2)cc2cn(C3CCNCC3)nc12 [Compound 158, 7-[7-fluoro-2-(4-piperidyl)indazol-5-yl]isoquinoline]",1000 to 10000,1000 to 10000,–
"Cc1cn2nc(-c3cc(F)c4nn(C5CCN(C6CCC6)C6(CC6)C5)cc4c3)cc(C)c2n1 (stereo not shown) [Compound 186, 6-[2-(4-cyclobutyl-4-azaspiro[2.5]octan-7-yl)-7-fluoro-indazol-5-yl]-2,8-dimethyl-imidazo[1,2-b]pyridazine]",100 to 1000,–,< 100
"Cc1cn2nc(-c3cc(F)c4nn(C5CCNC6(CC6)C5)cc4c3)cc(C)c2n1 (stereo not shown) [Compound 171, 6-[2-(4-azaspiro[2.5]octan-7-yl)-7-fluoro-indazol-5-yl]-2,8-dimethyl-imidazo[1,2-b]pyridazine]",100 to 1000,< 100,–
"CCN1CCC(n2cc3cc(-c4cc(C)c5nc(C)cn5n4)cc(F)c3n2)CC12CC2 (stereo not shown) [Compound 177, 6-[2-(4-ethyl-4-azaspiro[2.5]octan-7-yl)-7-fluoro-indazol-5-yl]-2,8-dimethyl-imidazo[1,2-b]pyridazine]",100 to 1000,< 100,–
"Cc1cn2nc(-c3cc(F)c4nn(C5CCNCC5)cc4c3)cc(C)c2n1 [Compound 122, 6-(7-fluoro-2-(piperidin-4-yl)-2H-indazol-5-yl)-2,8-dimethylimidazo [1,2-b]pyridazine hydrochloride salt]",< 100,–,< 100
"Cc1cn2nc(-c3cc(F)c4nn(C5CCN(CC6CC6)C6(CC6)C5)cc4c3)cc(C)c2n1 (stereo not shown) [Compound 183, 6-[2-[4-(cyclopropylmethyl)-4-azaspiro[2.5]octan-7-yl]-7-fluoro-indazol-5-yl]-2,8-dimethyl-imidazo[1,2-b]pyridazine]",100 to 1000,< 100,–
"Cc1cn2nc(-c3cc(F)c4nn(C5CCN(CCO)CC5)cc4c3)cc(C)c2n1 [Compound 160, 2-[4-[5-(2,8-dimethylimidazo[1,2-b]pyridazin-6-yl)-7-fluoro-indazol-2-yl]-1-piperidyl]ethanol]",100 to 1000,–,< 100
"Cc1cn2nc(-c3cc4cn(C5CCNCC5)nc4c(OCc4ccccc4)n3)cc(C)c2n1 [Compound 153, 6-[7-benzyloxy-2-(4-piperidyl)pyrazolo [3,4-c]pyridin-5-yl]-2,8-dimethyl-imidazo[1,2-b]pyridazine]",–,> 10000,–
Cc1cn2nc(-c3cc(F)c4nn(C5CCN(CCF)CC5)cc4c3)cc(C)c2n1 [Compound 152],–,< 100,–
"Cc1cn2nc(-c3cc4cn(C5CCNCC5)nc4c(O)n3)cc(C)c2n1 [Compound 139, 5-(2,8-dimethylimidazo[1,2-b]pyridazin-6-yl)-2-(4-piperidyl)-6H-pyrazolo[3,4-c]pyridin-7-one]",–,< 100,–
"Cc1cn2nc(-c3cc(F)c4nn(C5CCN(C6CCC6)CC5)cc4c3)cc(C)c2n1 [Compound 151, 6-[2-(1-cyclobutyl-4-piperidyl)-7-fluoro-indazol-5-yl]-2,8-dimethyl-imidazo [1,2-b] pyridazine]",–,–,< 100
Cn1cc2cc(-c3cc(Cl)c4nn(C5CCNCC5)cc4n3)c(O)cc2n1 [Compound 141],–,1000 to 10000,–
"Cc1cn2nc(-c3cc(F)c4nn(C5CCN(C)CC5)cc4c3)cc(C)c2n1 [Compound 150, 6-[7-fluoro-2-(1-methyl-4-piperidyl)indazol-5-yl]-2,8-dimethyl-imidazo[1,2-b]pyridazine]",–,< 100,–

# Now from value to molecule, other results behind:
GI50 (K562 cells) [nM],IC50 (SMN2 mRNA; [1]) [nM],SMILES,IC50 (SMN2 mRNA) [nM]
100 to 1000,< 100,"Cc1cn2cc(-c3cc(F)c4nn(C5CCNCC5)cc4c3)cc(Cl)c2n1 [Compound 127, 5-(8-chloro-2-methylimidazo[1,2-a]pyridin-6-yl)-7-fluoro-2-(piperidin-4-yl)-2H-indazole hydrochloride salt]",–
100 to 1000,< 100,"Cn1cc2cc(-c3ccc4nn(C5CCNCC5)cc4n3)c(O)c(F)c2n1 [Compound 107, 7-fluoro-2-methyl-5-[2-(4-piperidyl)pyrazolo [4,3-b]pyridin-5-yl]indazol-6-ol]",–
100 to 1000,< 100,"Cc1cn2cc(-c3cc(F)c4nn(C5CCNCC5)cc4c3)cc(C)c2n1 [Compound 125, 5-(2,8-dimethylimidazo[1,2-a]pyridin-6-yl)-7-fluoro-2-(4-piperidyl)indazole]",–
1000 to 10000,100 to 1000,"Cc1cc(-n2cc3cc(C4CCNCC4)cc(F)c3n2)cc2cn(C)nc12 [Compound 115, 2-(2,7-dimethylindazol-5-yl)-7-fluoro-5-(4-piperidyl)indazole]",–
100 to 1000,< 100,"Cn1cc2cc(-c3ccc4nn(C5CCNCC5)cc4c3)cc(F)c2n1 [Compound 105, 7-fluoro-2-methyl-5-[2-(4-piperidyl)indazol-5-yl]indazole]",–
100 to 1000,< 100,"Cc1cn2nc(-c3cc(F)c4nn([C@@H]5CCNC[C@H]5F)cc4c3)cc(C)c2n1 [Compound 168, 6-(7-fluoro-2-((3R,4R)-3-fluoropiperidin-4-yl)-2H-indazol-5-yl)-2,8-dimethylimidazo [1,2-b]pyridazine]",–
> 10000,1000 to 10000,"Cn1cc2cc(-c3ccc4cn(C5CCNCC5)nc4c3)cc(F)c2n1 [Compound 148, 7-fluoro-2-methyl-5-[2-(4-piperidyl)indazol-6-yl]indazole]",–
100 to 1000,< 100,"Cc1nc2ccc(-c3cc(F)c4nn(C5CCNCC5)cc4c3)cc2o1 [Compound 135, 6-[7-fluoro-2-(4-piperidyl)indazol-5-yl]-2-methyl-1,3-benzoxazole]",–
> 10000,> 10000,"Cc1ncc2cc(-c3cc(F)c4nn(C5CCNCC5)cc4c3)ccc2n1 [Compound 165, 6-[7-fluoro-2-(4-piperidyl)indazol-5-yl]-2-methyl-quinazoline]",–
1000 to 10000,< 100,"CCN1CCC(n2cc3cc(-c4cc(F)c5nn(C)cc5c4)cc(F)c3n2)CC1 [Compound 104, 2-(1-ethyl-4-piperidyl)-7-fluoro-5-(7-fluoro-2-methyl-indazol-5-yl)indazole]",–
1000 to 10000,< 100,"Cn1cc2cc(-c3cc(F)c4nn(C5CCNCC5)cc4c3)ccc2n1 [Compound 145, 7-fluoro-5-(2-methylindazol-5-yl)-2-(4-piperidyl)indazole]",–
1000 to 10000,100 to 1000,"Cc1nc2c(C)c(O)c(-c3cc(F)c4nn(C5CCNCC5)cc4c3)cc2o1 [Compound 123, 6-[7-fluoro-2-(4-piperidyl)indazol-5-yl]-2,4-dimethyl-1,3-benzoxazol-5-ol]",–
> 10000,1000 to 10000,"Cc1ccc2nc(-c3cc(F)c4nn(C5CCNCC5)cc4c3)ccc2n1 [Compound 157, 2-[7-fluoro-2-(4-piperidyl)indazol-5-yl]-6-methyl-1,5-naphthyridine]",–
